22 molecules from patent US8048898B2, “Inhibitor of binding of S1P1” (Taisho Pharmaceutical Co., Ltd, priority 2007, dated 2011) can be followed below.

For orientation: IC50 means the concentration that gives 50% inhibition. Broadly, the inhibition is the percentage by which the read-out fell short of the control.

Where only a bound is given, the exact number is not on record here.

For this assay, the target named is T1, human Edg-1(S1P1) (Homo sapiens, UniProt P21453).
T1 construct: expressed in transfected cells; host or cells: HEK-293
Kind of assay: S1P1 Binding Test ([33P]-S1P, membrane fraction of HEK-293 cell line carrying the human Edg-1(S1P1) gene). To be noted: [33P]-S1P 0.1 nM; for IC50: membrane binding test at various concentrations, read-out: IC50 value, Edg-1(S1P1) binding inhibition; for inhibition at 10 µM: compound at 10 μM, 30° C., 1 hour, read-out: inhibition rate of Edg-1(S1P1) binding. The method, then: The membrane fraction of a HEK-293 cell line carrying the human Edg-1(S1P1) gene was used to study the compounds of the present invention for their inhibitory effect on Edg-1(S1P1) binding, as described in Science. […] To obtain the membrane fraction, treatment with solubilizing buffer (1 mM Tris/HCl, pH 7.2) for 10 minutes on ice was performed, followed by centrifugation at 1000×g for 5 minutes to remove an insoluble fraction and then at 40000×g for 30 minutes at 4° C. The resulting membrane fraction was dissolved in binding buffer (20 mM Tris-HCl, pH 7.4, 100 mM NaCl, 15 mM NaF, 2 mM deoxypyridoxine, 4 mg/mL fatty acid-free BSA), followed by addition of binding buffer containing [^33P]-S1P (ARC, final concentration: 0.1 nM) and DMSO solution of a test compound (final concentration of the compound: 10^−5 M, final concentration of DMSO: 0.1%). After stirring, the reaction solution was incubated at 30° C. for 1 hour. The membrane fraction was collected onto a unifilter-96 GF/C filter (Perkin Elmer) using a harvester and washed four times with binding buffer, followed by drying the filter. After addition of 25 μL Microscint 0 (Perkin Elmer), radioactivity was measured with a Top Count NXT (Packard) to calculate amount (A), i.e., the amount of [^33P]-S1P binding to the membrane fraction in the presence of the compound.
The same procedure was performed in the absence of any test compound to calculate amount (B), i.e., the amount of [^33P]-S1P binding. Moreover, the same procedure was also performed with HEK-293 cells carrying no Edg-1(S1P1) gene in the absence of any test compound to calculate amount (C), i.e., the amount of background [^33P]-S1P binding.
The inhibition rate of Edg-1(S1P1) binding was calculated for each compound by the following equation. Inhibition rate (%)=[1−(A−C)/(B−C)]×100
Moreover, the activity of each test compound was calculated as a value (IC50 value) showing 50% of the radioactivity obtained in the absence of any test compound. Namely, the above membrane system binding test was performed in the presence of a test compound at various concentrations to calculate an IC50 value according to the dose-dependent inhibition curve analyzed with data analysis software, Origin (Lightstone Corp., Japan).

T1 sequence (P21453 whole entry): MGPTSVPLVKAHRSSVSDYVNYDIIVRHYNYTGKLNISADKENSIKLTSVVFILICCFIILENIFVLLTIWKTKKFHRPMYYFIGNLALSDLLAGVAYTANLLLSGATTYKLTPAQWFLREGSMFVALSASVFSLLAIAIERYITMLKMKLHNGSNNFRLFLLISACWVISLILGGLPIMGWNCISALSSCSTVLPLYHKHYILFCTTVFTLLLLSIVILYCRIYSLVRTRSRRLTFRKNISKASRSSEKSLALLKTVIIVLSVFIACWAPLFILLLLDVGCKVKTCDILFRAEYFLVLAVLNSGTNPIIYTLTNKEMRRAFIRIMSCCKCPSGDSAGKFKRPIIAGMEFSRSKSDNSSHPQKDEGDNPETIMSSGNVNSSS

As to “5-Chloro-naphthalene-2-sulfonic acid (1-{3-ethyl-4-[3-(4-methyl-piperazin-1-yl)-phenoxy]-pyridin-2-yl}-ethyl)-amide [Compound 4]”, the IC50 is 121 nM. In the case of `CCc1c(C(C)NS(=O)(=O)c2ccc3c(Cl)cccc3c2)ccnc1Sc1cccc(N2CCN(C)CC2)c1` (single isomer, unassigned) [Compound 61], the inhibition at 10 µM was not below 3% and the IC50 amounted to 33 nM. Take `CCc1c(Oc2ccc(C)cc2)nc(C)nc1C(C)NS(=O)(=O)c1ccc(Cl)c(Cl)c1` (stereo not shown) [Compound 1]: the inhibition at 10 µM was not below 3%. On the same count and under the same terms, the value for `CCc1c(Oc2ccc(C)cc2)nc(C)nc1C(C)NS(=O)(=O)c1ccc2c(Cl)cccc2c1` (stereo not shown) [Compound 2] was not below 3%. As for `CCc1c(C(C)NS(=O)(=O)c2ccc(Cl)c(Cl)c2)ccnc1Oc1cccc(N2CCN(C)CC2)c1` (stereo not shown) [Compound 3, 3,4-Dichloro-N-(1-{3-ethyl-2-[3-(4-methyl-piperazin-1-yl)-phenoxy]-pyridin-4-yl}-ethyl)-benzenesulfonamide], the inhibition at 10 µM was not below 3% and the half-maximal inhibitory concentration (IC50) stood at 107 nM. For `CCc1c(Oc2cccc(N3CCN(C)CC3)c2)ccnc1C(C)NS(=O)(=O)c1ccc(Cl)c(Cl)c1` (stereo not shown) [Compound 5], the inhibition at 10 µM is not below 3%. Same read-out and setting: for `Cc1c(C(C)NS(=O)(=O)c2ccc(Cl)c(Cl)c2)ccnc1Oc1cccc(N2CCN(C)CC2)c1` (stereo not shown) [Compound 6] the value was not below 3%.

Take `Cc1c(C(C)NS(=O)(=O)c2ccc3c(Cl)cccc3c2)ccnc1Oc1cccc(N2CCN(C)CC2)c1` (stereo not shown) [Compound 7]: the inhibition at 10 µM is not below 3% and the IC50 was not above 200 nM. Regarding `CC(NS(=O)(=O)c1ccc(Cl)c(Cl)c1)c1ccnc(Oc2cccc(N3CCN(C)CC3)c2)c1` (stereo not shown) [Compound 8], the inhibition at 10 µM was not below 3%. Still for that read-out and setting: for `CC(NS(=O)(=O)c1ccc2c(Cl)cccc2c1)c1ccnc(Oc2cccc(N3CCN(C)CC3)c2)c1` (stereo not shown) [Compound 9] the value was not below 3%. Same read-out and setting: the value for `CCCc1c(C(C)NS(=O)(=O)c2ccc(Cl)c(Cl)c2)ccnc1Oc1cccc(N2CCN(C)CC2)c1` (stereo not shown) [Compound 10] was not below 3%. Take `CCCc1c(C(C)NS(=O)(=O)c2ccc3c(Cl)cccc3c2)ccnc1Oc1cccc(N2CCN(C)CC2)c1` (stereo not shown) [Compound 11]: the inhibition at 10 µM is not below 3% and the IC50 was not above 200 nM. Take `CCc1c(C(CC)NS(=O)(=O)c2ccc(Cl)c(Cl)c2)ccnc1Oc1cccc(N2CCN(C)CC2)c1` (stereo not shown) [Compound 12]: the inhibition at 10 µM is not below 3%. For `CCc1c(C(CC)NS(=O)(=O)c2ccc3c(Cl)cccc3c2)ccnc1Oc1cccc(N2CCN(C)CC2)c1` (stereo not shown) [Compound 13], the inhibition at 10 µM was not below 3% and the IC50 was 47 nM.

As for `CCc1c(CNS(=O)(=O)c2ccc(Cl)c(Cl)c2)ccnc1Oc1cccc(N2CCN(C)CC2)c1` [Compound 14], the inhibition at 10 µM is not below 3%.

With `CCc1c(CNS(=O)(=O)c2ccc3c(Cl)cccc3c2)ccnc1Oc1cccc(N2CCN(C)CC2)c1` [Compound 15], the inhibition at 10 µM is not below 3%. Same read-out and setting: the value for `CCc1c(C(C)NS(=O)(=O)c2ccc(Cl)c(Cl)c2)ccnc1Oc1ccc(C)cc1` (stereo not shown) [Compound 16] was not below 3%; that for `CCc1c(C(C)NS(=O)(=O)c2ccc(Cl)c(Cl)c2)ccnc1Oc1ccc(OC)cc1` (stereo not shown) [Compound 17] was not below 3%. On the same count and under the same terms, the value for `CCc1c(C(C)NS(=O)(=O)c2ccc(Cl)c(Cl)c2)ccnc1Oc1ccc(Cl)cc1` (stereo not shown) [Compound 18] was not below 3%. As to `CCc1c(C(C)NS(=O)(=O)c2ccc(Cl)c(Cl)c2)ccnc1Oc1cccc(N2CCOCC2)c1` (stereo not shown) [Compound 19], the inhibition at 10 µM is not below 3% and the IC50 is 66 nM. Consider `CCc1c(C(C)NS(=O)(=O)c2ccc(Cl)c(Cl)c2)ccnc1Oc1ccc2ccncc2c1` (stereo not shown) [Compound 20], for which the inhibition at 10 µM was not below 3%. On the same count and under the same terms, for `CCc1c(C(C)NS(=O)(=O)c2ccc(Cl)c(Cl)c2)ccnc1Oc1ccc2ccccc2c1` (stereo not shown) [Compound 21] the value was not below 3%.
